Measurements taken from patent US20250296914A1, “ANTIVIRAL COMPOUNDS AND COMPOSITIONS THEREFROM” (CONSEJO SUPERIOR DE INVESTIGACIONES CIENTÍFICAS, priority 2022, published 2025).
pEC50: −log10 of the molar value.

How the values were obtained:
[1] = system: SARS-CoV-2 stock strain NL/2020; assay: Intracellular viral antigen (N protein) accumulation by immunofluorescence, Vero-E6; format: cell-based; settings: Severe acute respiratory syndrome coronavirus 2, Vero C1008; Vero-E6, MOI 0.005, viral antigen staining, 24 h
[2] = system: SARS-CoV-2 stock strain NL/2020; assay: Protective effect against virus-induced cytopathic effect (crystal violet staining of Vero-E6 monolayer); format: cell-based; settings: Severe acute respiratory syndrome coronavirus 2, Vero C1008, 72 h, Vero-E6, SARS-CoV-2 MOI 0.001, 72 h; for minimal effective concentration: 50 to 0.78 μM tested, read-out: PC MIN (lowest protective concentration); for pEC50: lowest fully protecting concentration averaged with next lower dilution, read-out: ESTIMATED EC50
hCoV-229E-GFP virus = format: cell-based, Human coronavirus 229E
[3] = system: SARS-CoV-2 stock strain NL/2020; assay: Intracellular viral antigen (N protein) accumulation by immunofluorescence, Calu3; format: cell-based; settings: Severe acute respiratory syndrome coronavirus 2; Calu-3, MOI 0.005, viral antigen staining, 48 h
[4] = system: SARS-CoV-2 stock strain NL/2020; assay: Intracellular viral antigen (N protein) accumulation by immunofluorescence, A549-ACE2; format: cell-based; settings: Severe acute respiratory syndrome coronavirus 2; A549-ACE2, MOI 0.005, viral antigen staining, 48 h
WNV-GFP virus = format: cell-based, West Nile Virus; settings: Huh-7, MOI 0.01, 48 h, FIG. 2
in vitro [5] = settings: human
in vitro [6] = settings: African green monkey
VSV-GFP virus = format: cell-based, Vesicular Stomatitis Virus
in vitro [7] = settings: human; remark: listed apart in the source
[8] = system: SARS-CoV-2 stock strain NL/2020; assay: Intracellular viral RNA quantification by RT-qPCR in A549-ACE2 cells; format: cell-based

| SMILES | pEC50 [1] | EC90 [1] | minimal effective concentration [2] | pEC50 [2] | Prevention of infection with 229E-GFP (GFP expression, in words) (hCoV-229E-GFP virus) | pEC50 [3] | EC90 [3] | pEC50 [4] | EC90 [4] | Prevention of infection by West Nile Virus (GFP expression, in words) (WNV-GFP virus) | CC50 at 48 h (in vitro [5]) | CC50 at 48 h (in vitro [6]) | Prevention of infection by Vesicular Stomatitis Virus (GFP expression, in words) (VSV-GFP virus) | CC50 at 48 h (in vitro [7]) | LOG viral RNA reduction ([8]; A549-ACE2, MOI 0.005, 48 h, compound concentration 4 μM, vs DMSO) | Prevention of SARS-CoV-2 propagation (in words) ([8]; A549-ACE2, conclusion from Table 5) |
| --- | --- | --- | --- | --- | --- | --- | --- | --- | --- | --- | --- | --- | --- | --- | --- | --- |
| COC(=O)c1cc(-c2ccc(N3CCOCC3)cc2)ccc1NC(C#N)[C@H](Cc1c[nH]c2ccccc12)NC(=O)OC(C)(C)C (stereo partly drawn) [(Ia), methyl 4-(((2S)-2-((tert-butoxycarbonyl)amino)-1-cyano-3-(1H-indol-3-yl)propyl)-amino)-4′-morpholino-[1,1′-biphenyl]-3-carboxylate] | 6.52 | 0.5 µM | 0.78 µM | 6.24 | suitable for preventing efficiently the infection | 6.70 | 2 µM | 6.00 | 1.8 µM | not being suitable for preventing the infection | > 50 µM | > 50 µM | not being suitable for preventing the infection | > 50 µM | – | – |
| CC(C)(C)OC(=O)N[C@@H](Cc1c[nH]c2ccccc12)C(C#N)Nc1ccc(Br)cc1C(=O)c1ccccc1 (stereo partly drawn) [(Ic), (3S)-2-((4-Bromo-2-benzoylphenyl)amino)-4-(1H-indol-3-yl)-3-(tert-butoxycarbonylamino)butanenitrile] | 6.70 | 0.3 µM | 0.78 µM | 6.24 | suitable for preventing efficiently the infection | 5.92 | 1.8 µM | 6.00 | 2.1 µM | not being suitable for preventing the infection | – | > 50 µM | not being suitable for preventing the infection | – | 4.26 LOG | effective in preventing propagation of SARS-CoV-2 |
| COC(=O)c1cc(-c2ccc(N3CCCC3)nc2)ccc1NC(C#N)[C@H](Cc1c[nH]c2ccccc12)NC(=O)OC(C)(C)C (stereo partly drawn) [(Iq), methyl 2-(((2S)-2-((tert-butoxycarbonyl)amino)-1-cyano-3-(1H-indol-3-yl)propyl)amino)-5-(6-(pyrrolidin-1-yl)pyridin-3-yl)benzoate] | 6.70 | 0.9 µM | 1.56 µM | 5.93 | suitable for preventing efficiently the infection | 6.52 | 2.5 µM | 5.82 | 5 µM | not being suitable for preventing the infection | > 50 µM | > 50 µM | not being suitable for preventing the infection | > 50 µM | – | – |
